Marks after values point to notes of the source that are not given here.
What was measured:
Eimeria spp. [1] = assay: 42-day trials, growth of broiler chicks reared on Eimeria-infected recycled litter (Example 6); format: in vivo, Cornish Rock male broiler chicks; details: AVATEC 90.7 g/ton, Bacitracin Zn 50 g/t, BIO-MOS 0.5 kg/tonne
Method: Three 42-day trials were conducted to evaluate the effects of AVATEC (lasalocid, Alpharma, Fort Lee, N.J.), an anticoccidial ionophore (90.7 g/ton); Bacitracin Zn, (50 g/t), and BIO-MOS® (0.5 kg/tonne) on the growth of broiler chicks reared on recycled litter. Sixty (day-old) Cornish Rock male broiler chicks were put into each of four treatment groups (replicated three times) consisting of the following: 1) Control (untreated birds); 2) BIO-MOS® treated, 3) AVATEC treated, and 4) Bacitracin ZN treated. Pine wood shavings on which broilers infected with E. tenella, E. maxima, and E. acervulina had been grown were used as recycled litter for the trials. Pens containing this recycled litter were assigned to the four treatment groups prior to commencement of the trial, and day old chicks were introduced for each of the three subsequent trials with the same recycled litter.
Diets consisted of mainly corn-soy supplemented with necessary vitamins and minerals to satisfy 1994 National Research Council requirements. Weekly body weights were measured. […] Mean body weight averages of chicks in all treatments decreased with each cycle of litter re-use due to infection.

E. tenella = assay: 28-day trial, broiler chicks challenged with E. tenella (Example 1); format: in vivo, Cornish Rock male broiler chicks
Method: A 28-day trial with 360 Cornish Rock male broiler chicks was conducted to investigate the effects of two medicated feeds on the suppression of detrimental effects of E. tenella (See Tables I & II).
Day-old chicks were fed standard corn soya diets containing Monensin ([…]) or a yeast cell wall/mannanoligosaccharide-containing composition (BIO-MOS®, Alltech, Inc., Nicholasville, Ky.) (1 kg/tonne). The experimental groups included: 1) negative control (unmedicated, unchallenged); 2) positive control (untreated, challenged); 3) Monensin-treated, challenged and 4) BIO-MOS®-treated, challenged. Birds were randomly assigned to three replicate pens in each treatment group. At 14 days of age, chicks were infected orally by gavage with E. tenella (50,000 oocysts/bird). The response variables measured included weekly body weight gain and cecal lesion scores as described (Johnson and Reid. 1970 “Anticoccidial Drugs: Lesion Scoring Technique in Battery and Floor Pen Experiments with Chickens.” Exp. Parasitol. 28:30-36). Treatment differences were evaluated by using the LSD procedure with the General Linear Models Procedure (SAS Institute, 1985, Cary, N.C.) using pens as the experimental units. The model statement included only treatment effects. When significance differences (P<0.05) were observed, the least significant differences (LSD) procedures was applied to test for the differences among treatments.

E. maxima = assay: 28-day trial, broiler chicks challenged with E. maxima (Example 2); format: in vivo, Cornish Rock male broiler chicks
Method: A 28-day trial with 360 Cornish Rock male broiler chicks was conducted to investigate the effects of two medicated feeds on the suppression of E. maxima infection. Thirty day-old chicks per treatment group were housed in battery cages and fed a standard soya corn diet containing Monensin ([…]) or a commercially available yeast cell-derived composition containing yeast cell wall material and mannanoligosaccharide (BIO-MOS®) (1 kg/tonne). The four experimental groups included: 1) negative control (unmedicated, unchallenged); 2) positive control (unmedicated, challenged); 3) Monensin treated, challenged, and 4) BIO-MOS® treated, challenged. Birds were assigned to treatments and replicate pens as described in Example 1. At 14 days of age, chicks were infected orally by gavage with E. maxima (50,000 oocysts/bird). The response variables measured included weekly body weight gain and cecal lesion scores. Such measurements were subjected to analysis of variance as described in Example 1.

E. acervulina = assay: 28-day trial, broiler chicks challenged with E. acervulina (Example 3); format: in vivo, Cornish Rock male broiler chicks
Method: A 28-day trial with 360 Cornish Rock male broiler chicks was conducted to investigate the effects of two medicated feeds on the suppression of detrimental effects of E. acervulina.
Day-old chicks were fed a standard corn soya diet containing Salinomycin (6 mg/kg) or BIO-MOS® (1 kg/tonne). The four experimental groups were: 1) negative control, unmedicated, unchallenged; 2) Salinomycin-treated, challenged, 3) BIO-MOS®-treated, challenged and 4)BIO-MOS® treated, unchallenged. Birds were randomly assigned to three replicate pens in each treatment group. At 14 days of age, chicks were infected orally by gavage with E. acervulina (500,000 oocysts/bird). The response variables measured included weekly body weight gain and cecal lesion scores. Data were subjected to ANOVA using the General Linear Model procedure (SAS Institute, Cary, N.C.) as described in Example 1.

Eimeria spp. [2] = assay: 20-day battery trial, chicks challenged with sporulated Eimeria species (Example 4); format: in vivo, broiler chicks (Cobb)
Method: A 20-day battery trial was conducted to determine the anticoccidial activity of a yeast cell composition in broiler chicks (Cobb) challenged with sporulated Eimeria species. One hundred sixty chicks (day old) were housed in battery cages (10 chicks per cage, 459 sq. cm/bird). There were four replicated cages per treatment. A standard corn soya diet was provided with water ad libitum. Treatment groups were the following: (1) Negative control (non-medicated, unchallenged); 2) positive control (non-medicated, challenged; 3) BIO-MOS®, 1 kg/tonne (challenged); and 4) Salinomycin, 60 g/tonne (challenged).
The challenge inoculum was provided at 14 days of age and contained 50,000 E. acervulina, 5,000 E. maxima or 40,000 E. tenella oocysts, respectively, administered by oral gavage. Body weights and feed consumption were measured at 9, 14 and 20 days of age. Six days post-infection all birds were sacrificed and lesion scored using the method of Johnson and Reid (1970) supra. Lesion scores were evaluated in the upper (E. acervulina), middle (E. maxima), and cecal (E. tenella) regions of the intestine.

Eimeria spp. [3] = assay: 20-day battery trial, chicks challenged with sporulated Eimeria species (Example 5); format: in vivo, broiler chicks (Cobb)
Method: A 20-day battery trial was conducted to determine the anticoccidial activity of a BIO-MOS® in broiler chicks (Cobb) challenged with sporulated Eimeria species. One hundred sixty chicks (day old) were housed in battery cages (10 chicks per cage, 459 sq.cm/bird). There were 4 replicated cages per treatment. A standard soya corn diet was provided with water ad libitum. Treatment groups were the following: 1) Negative control (non-medicated, unchallenged); 2) Positive control (non-medicated and challenged; 3) BIO-MOS®, 1 kg/tonne (challenged); and 4) Salinomycin, 60 g/tonne (challenged).
The challenge inoculum was provided at 14 days of age and contained respectively, 50,000 E. acervulina, 5,000 E. maxima or 40,000 E. tenella oocysts administered by oral gavage. Body weights and feed consumption were measured at 0, 14 and 20 days of age.
Six days post infection all birds were sacrificed and lesion scored, using the method of Johnson and Reid supra. Lesion scores were evaluated in the upper (E. acervulina), middle (E. maxima), and cecal (E. tenella) regions of the intestine.

[4] = Eimeria spp. infected, BIO-MOS 1 kg/t, Salinomycin 60 g/t
[5] = post-challenge period, BIO-MOS 1 kg/t, Salinomycin 60 g/t
[6] = post-challenge weight gain versus unchallenged control
[7] = pre-challenge period, BIO-MOS 1 kg/t, Salinomycin 60 g/t
[8] = whole trial, BIO-MOS 1 kg/t, Salinomycin 60 g/t

CC[C@@H](C(=O)[C@@H](C)[C@@H](O)[C@H](C)CCc1ccc(C)c(O)c1C(=O)O)[C@H]1O[C@](CC)([C@H]2CC[C@](O)(CC)[C@H](C)O2)C[C@@H]1C [AVATEC, lasalocid]
Body Weight, Trial 1 (Eimeria spp. [1]; 42-day trial 1 on recycled litter): 2271^a Grams | Body Weight, Trial 2 (Eimeria spp. [1]; 42-day trial 2 on same recycled litter): 1863^b Grams | Body Weight, Trial 3 (Eimeria spp. [1]; 42-day trial 3 on same recycled litter): 1760^ab Grams

CC[C@@]1([C@@H]2O[C@@H]([C@H]3O[C@@](O)(CO)[C@H](C)C[C@@H]3C)C[C@@H]2C)CC[C@H]([C@]2(C)CC[C@]3(C[C@H](O)[C@@H](C)[C@@H]([C@@H](C)[C@@H](OC)[C@H](C)C(=O)O)O3)O2)O1 [Monensin]
Average Weight Gain, Mean (E. tenella; E. tenella infected, weeks 2-4 after challenge, mean of 3 replications): 544 Grams | Average Weight Gain, Replication 1 (E. tenella; E. tenella infected, weeks 2-4 after challenge, replicate pen 1): 498 Grams | Average Weight Gain, Replication 2 (E. tenella; E. tenella infected, weeks 2-4 after challenge, replicate pen 2): 611 Grams | Average Weight Gain, Replication 3 (E. tenella; E. tenella infected, weeks 2-4 after challenge, replicate pen 3): 523 Grams | Cecal Lesion Scores (E. tenella; chicks infected with E. tenella 50,000 oocysts/bird at 14 days, Monensin 60 g/kg or BIO-MOS 1 kg/tonne in feed): 1.50^b | improvements in weight gain relative to E. tenella-challenged control (E. tenella; standard Monensin treatment): not seen | severity of the E. tenella infections as measured by cecal lesion scores (E. tenella; versus untreated challenged control): significantly (P<0.05) reduced | Average Weight Gain, Mean (E. maxima; E. maxima infected, 2-4 weeks after challenge, mean of 3 replications): 536 | Average Weight Gain, Replication 1 (E. maxima; E. maxima infected, 2-4 weeks after challenge, replicate pen 1): 598 | Average Weight Gain, Replication 2 (E. maxima; E. maxima infected, 2-4 weeks after challenge, replicate pen 2): 412 | Average Weight Gain, Replication 3 (E. maxima; E. maxima infected, 2-4 weeks after challenge, replicate pen 3): 599 | reduction of average cecal lesion scores (E. maxima; E. maxima infection, versus positive control): 21% | Cecal Lesion Scores (E. maxima; chicks challenged with E. maxima 50,000 oocysts/bird at 14 days, Monensin 60 g/kg or BIO-MOS 1 kg/tonne in feed): 0.93^b

CC[C@@H](C(=O)[C@@H](C)[C@@H](O)[C@H](C)[C@@H]1O[C@@H]([C@@H](CC)C(=O)O)CC[C@@H]1C)[C@H]1O[C@]2(C=C[C@@H](O)[C@]3(CC[C@@](C)([C@H]4CC[C@](O)(CC)[C@H](C)O4)O3)O2)[C@H](C)C[C@@H]1C [Salinomycin]
Body Weight Gain Post-Infection Week 3 (E. acervulina; Challenge: Yes (E. acervulina)): 350^a grams | Body Weight Gain Post-Infection Week 4 (E. acervulina; Challenge: Yes (E. acervulina)): 607^ab grams | Body Weight Pre-Infection Week 2 (E. acervulina; Challenge: Yes (E. acervulina)): 236^a grams | reduction of severity of cecal lesions (cecal lesion scores) (E. acervulina; E. acervulina challenge, versus positive control): 57% | Cecal Lesion Scores (E. acervulina; chicks challenged with E. acervulina 500,000 oocysts/bird at 14 days, Salinomycin 6 mg/kg or BIO-MOS 1 kg/tonne in feed): 0.92^bc | lesion scores compared to control groups in the upper and mid intestine regions (Eimeria spp. [2]; Eimeria spp. challenge): significantly reduced (P<0.05) | Feed Conv. (Eimeria spp. [2]; [4]): 1.511^b | Average Cecal Lesion Scores, Ceca (Eimeria spp. [2]; cecal region (E. tenella), six days post-infection, BioMos 1 kg/t, Salinomycin 60 g/t): 0.6^c | Average Cecal Lesion Scores, Mid (Eimeria spp. [2]; middle intestine (E. maxima), six days post-infection, BioMos 1 kg/t, Salinomycin 60 g/t): 0.8^c | Avg. Live Wt. Gain Day 14-20 (Eimeria spp. [2]; [5]): 0.314^a kg | % Wt. Gain Reduction (Eimeria spp. [2]; [6]): −0.41% | Avg. Live Wt. Gain Day 0-14 (Eimeria spp. [2]; [7]): 0.634^a kg | Average Cecal Lesion Scores, Total (Eimeria spp. [2]; total of regions, six days post-infection, BioMos 1 kg/t, Salinomycin 60 g/t): 2.7^c | Average Cecal Lesion Scores, Upper (Eimeria spp. [2]; upper intestine (E. acervulina), six days post-infection, BioMos 1 kg/t, Salinomycin 60 g/t): 1.3^c | Avg. Live Wt. Gain Day 0-20 (Eimeria spp. [2]; [8]): 0.634^a kg | lesion scores versus the positive control in all regions of the gut (Eimeria spp. [3]; Eimeria spp. challenge): significantly lower lesion scores | Feed Conv. (Eimeria spp. [3]; [4]): 1.675^a | Average Cecal Lesion Scores, Ceca (Eimeria spp. [3]; cecal region (E. tenella), six days post infection, BioMos 1 kg/t, Salinomycin 60 g/t): 1.2^b | Average Cecal Lesion Scores, Mid (Eimeria spp. [3]; middle intestine (E. maxima), six days post infection, BioMos 1 kg/t, Salinomycin 60 g/t): 0.7^b | Avg. Live Wt. Gain Day 14-20 (Eimeria spp. [3]; [5]): 0.243^ab kg | % Wt. Gain Reduction (Eimeria spp. [3]; [6]): 8.90% | Avg. Live Wt. Gain Day 0-14 (Eimeria spp. [3]; [7]): 0.262^a kg | Average Cecal Lesion Scores, Total (Eimeria spp. [3]; total of regions, six days post infection, BioMos 1 kg/t, Salinomycin 60 g/t): 2.7^ab | Average Cecal Lesion Scores, Upper (Eimeria spp. [3]; upper intestine (E. acervulina), six days post infection, BioMos 1 kg/t, Salinomycin 60 g/t): 0.8^b | Avg. Live Wt. Gain Day 0-20 (Eimeria spp. [3]; [8]): 0.504^ab kg
